SMILES strings stand for the structures. Where “and” joins values, the source holds several entries; their conditions need not be identical. Identical values can stand only once. Toxic doses and inconclusive results are not listed.

Our source for the T/C values is PubChem BioAssay AID330 (DTP/NCI, 2004).

The test system of this test is P388 leukemia ip, CD2F1 mice, survival T/C. Description: NCI In Vivo Anticancer Drug Screen. Data for tumor model P388 Leukemia (intraperitoneal) in CD2F1 (CDF1) mice. The conditions noted are these: endpoint: median survival time, higher = longer survival. An outline of the steps:
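Mice carrying the transplanted tumor received test compound or vehicle. Survival was recorded in each group, and the value is the treated-group measurement divided by that of the vehicle-treated control group.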

Setting [1] is: dose: 100.0 mg/kg/injection, schedule: Q04DX003 (ip), vehicle: saline with Tween-80.
Setting [2] is: dose: 200.0 mg/kg/injection, schedule: Q04DX003 (ip), vehicle: saline with Tween-80.
The mark [3] stands for this setting: dose: 400.0 mg/kg/injection, schedule: Q04DX003 (ip), vehicle: saline with Tween-80.
Where [4] appears, read: dose: 50.0 mg/kg/injection, schedule: Q01DX005 (ip), vehicle: Klucel (hydroxypropylcellulose) (HPC).
Where [5] appears, read: dose: 100.0 mg/kg/injection, schedule: Q01DX005 (ip), vehicle: Klucel (hydroxypropylcellulose) (HPC).
The mark [6] stands for this setting: dose: 200.0 mg/kg/injection, schedule: Q01DX005 (ip), vehicle: Klucel (hydroxypropylcellulose) (HPC).
The mark [7] stands for this setting: dose: 12.5 mg/kg/injection, schedule: Q01DX009 (ip), vehicle: saline.
Setting [8] is: dose: 25.0 mg/kg/injection, schedule: Q01DX009 (ip), vehicle: saline.
Setting [9] is: dose: 50.0 mg/kg/injection, schedule: Q01DX009 (ip), vehicle: saline.
[10] abbreviates: dose: 100.0 mg/kg/injection, schedule: Q01DX009 (ip), vehicle: saline.
Setting [11] is: dose: 200.0 mg/kg/injection, schedule: Q01DX009 (ip), vehicle: saline.
[12] abbreviates: dose: 400.0 mg/kg/injection, schedule: Q01DX009 (ip), vehicle: saline.
[13] abbreviates: dose: 60.0 mg/kg/injection, schedule: Q01DX005 (ip), vehicle: saline with Tween-80.
Setting [14] is: dose: 120.0 mg/kg/injection, schedule: Q01DX005 (ip), vehicle: saline with Tween-80.
The mark [15] stands for this setting: dose: 240.0 mg/kg/injection, schedule: Q01DX005 (ip), vehicle: saline with Tween-80.
The mark [16] stands for this setting: dose: 100.0 mg/kg/injection, schedule: Q01DX009 (ip), vehicle: saline with Tween-80.
Where [17] appears, read: dose: 200.0 mg/kg/injection, schedule: Q01DX009 (ip), vehicle: saline with Tween-80.
[18] abbreviates: dose: 400.0 mg/kg/injection, schedule: Q01DX009 (ip), vehicle: saline with Tween-80.
Where [19] appears, read: dose: 100.0 mg/kg/injection, schedule: Q04DX002 (ip), vehicle: Klucel (hydroxypropylcellulose) (HPC).
Where [20] appears, read: dose: 200.0 mg/kg/injection, schedule: Q04DX002 (ip), vehicle: Klucel (hydroxypropylcellulose) (HPC).
Where [21] appears, read: dose: 400.0 mg/kg/injection, schedule: Q04DX002 (ip), vehicle: Klucel (hydroxypropylcellulose) (HPC).

`c1ccc(C2SCC3COCN32)cc1` (stereo unspecified): the T/C runs as follows: under setting [1], 97 % of control; under setting [2], 101 % of control; under setting [3], 100 % of control.

For the compound `NC(=S)N/N=C/c1cc([N+](=O)[O-])ccc1Cl`, the T/C (dose: 50.0 mg/kg/injection, schedule: Q01DX009 (ip), vehicle: suspension in saline) is 94 % of control; the T/C (dose: 100.0 mg/kg/injection, schedule: Q01DX009 (ip), vehicle: suspension in saline) is 92 % of control; the T/C (dose: 200.0 mg/kg/injection, schedule: Q01DX009 (ip), vehicle: suspension in saline) was 94 % of control.

As to `Nc1csc(Nc2c3ccccc3nc3ccccc23)n1`, the T/C runs as follows: (dose: 12.5 mg/kg/injection, schedule: Q04DX002 (ip), vehicle: distilled water + Tween-80) 98 % of control; (dose: 25.0 mg/kg/injection, schedule: Q04DX002 (ip), vehicle: distilled water + Tween-80) 97 % of control.

`Cc1ccc(NC(=O)N2CCCCC2)cc1[N+](=O)[O-]`: the T/C under setting [4] is 99 % of control, the T/C under setting [5] was 98 % of control and the T/C under setting [6] was 96 % of control.

Regarding `COC(=O)[CH2][Sn]([CH2]C(=O)OC)([c]1ccccc1)[c]1ccccc1`, the T/C (dose: 0.39 mg/kg/injection, schedule: Q01DX005 (ip), vehicle: Klucel (hydroxypropylcellulose) (HPC)) is 120 % of control and the T/C (dose: 0.79 mg/kg/injection, schedule: Q01DX005 (ip), vehicle: Klucel (hydroxypropylcellulose) (HPC)) was 112 % of control.

On to `COc1cc2cc[n+]3c(C)c4cc5c(cc4cc3c2cc1OC)OCO5` (tested in a mixture with another compound), for which the T/C runs as follows: (dose: 0.88 mg/kg/injection, schedule: Q01DX009 (ip), vehicle: saline) 124 % of control; (dose: 8.33 mg/kg/injection, schedule: Q01DX009 (ip), vehicle: saline) 166 % of control; under setting [7], 175 % of control; (dose: 18.7 mg/kg/injection, schedule: Q01DX009 (ip), vehicle: saline) 198 % of control.

For the compound `COc1c(C)[nH]ccc1=O`, the T/C reads like this: under setting [7], 102 % of control and 105 % of control; under setting [8], 101 % of control and 103 % of control; under setting [9], 99 % of control and 102 % of control; under setting [10], 99 % of control and 105 % of control; under setting [11], 104 % of control and 107 % of control; under setting [12], 104 % of control and 106 % of control.

For the compound `CCOC(=O)Nc1nc2ccccc2n1CN1CCOCC1`, the T/C is 106 % of control (dose: 25.0 mg/kg/injection, schedule: Q01DX005 (ip), vehicle: Klucel (hydroxypropylcellulose) (HPC)); 106 % of control under setting [4]; 105 % of control under setting [5]; 115 % of control under setting [6].

For `C[CH2][Sn]1([CH2]C)[O]S(=O)(=O)[O]1`, the T/C (dose: 1.56 mg/kg/injection, schedule: Q01DX005 (ip), vehicle: saline) is 124 % of control.

Turning to `CNc1nc(Cl)cc2onc(C)c12`, the T/C reads like this: under setting [13], 94 % of control; under setting [14], 100 % of control; under setting [15], 103 % of control.

As to `CC(=O)Nc1ccc(C(=O)O)cc1[N+](=O)[O-]`, the T/C reads like this: under setting [16], 99 % of control; under setting [17], 99 % of control; under setting [18], 97 % of control.

Take `CCOC(=O)N1CCC(n2nncc2OCC)CC1`: the T/C was 102 % of control under setting [19], 102 % of control under setting [20] and 105 % of control under setting [21].

Turning to `COc1ccc(OC)c(/C=C/c2ccc3ccccc3n2)c1`, the T/C runs as follows: under setting [16], 90 % of control; under setting [17], 90 % of control; under setting [18], 104 % of control.

Turning to `Cc1cccc2sc(NC(=O)Nc3cccc(F)c3)nc12`, the T/C (dose: 12.5 mg/kg/injection, schedule: Q01DX005 (ip), vehicle: saline with Tween-80) is 93 % of control and 94 % of control; the T/C (dose: 25.0 mg/kg/injection, schedule: Q01DX005 (ip), vehicle: saline with Tween-80) was 100 % of control and 96 % of control; the T/C (dose: 50.0 mg/kg/injection, schedule: Q01DX005 (ip), vehicle: saline with Tween-80) was 94 % of control and 96 % of control; the T/C (dose: 100.0 mg/kg/injection, schedule: Q01DX005 (ip), vehicle: saline with Tween-80) is 104 % of control and 89 % of control.

Turning to `O=S(=O)(Nc1ncccn1)c1ccc(N=Cc2c3ccccc3nc3ccccc23)cc1`, the T/C runs as follows: (dose: 12.5 mg/kg/injection, schedule: Q04DX002 (ip), vehicle: Klucel (hydroxypropylcellulose) (HPC)) 96 % of control; (dose: 25.0 mg/kg/injection, schedule: Q04DX002 (ip), vehicle: Klucel (hydroxypropylcellulose) (HPC)) 99 % of control; (dose: 50.0 mg/kg/injection, schedule: Q04DX002 (ip), vehicle: Klucel (hydroxypropylcellulose) (HPC)) 93 % of control; under setting [19], 99 % of control; under setting [20], 91 % of control; under setting [21], 96 % of control.

Consider `OC1(c2ccccc2)CCCCCC1`, for which the T/C was 113 % of control (dose: 25.0 mg/kg/injection, schedule: Q01DX009 (ip), vehicle: saline with Tween-80); 106 % of control (dose: 50.0 mg/kg/injection, schedule: Q01DX009 (ip), vehicle: saline with Tween-80); 106 % of control and 108 % of control under setting [16].

As to `CCOC(=O)N1CCN(c2cc(C)nc3cc(OC)ccc23)CC1`, the T/C reads like this: under setting [13], 88 % of control; under setting [14], 94 % of control.

For the compound `CCN(CC)C(=O)c1ccc(C)c2c1Nc1c(c(C)c3oc(=O)c(C)nc3c1C(=O)N(CC)CC)O2`, the T/C reads like this: (dose: 7.5 mg/kg/injection, schedule: Q01DX005 (ip), vehicle: Klucel (hydroxypropylcellulose) (HPC)) 97 % of control; (dose: 15.0 mg/kg/injection, schedule: Q01DX005 (ip), vehicle: Klucel (hydroxypropylcellulose) (HPC)) 90 % of control; (dose: 120.0 mg/kg/injection, schedule: Q01DX005 (ip), vehicle: Klucel (hydroxypropylcellulose) (HPC)) 88 % of control; (dose: 240.0 mg/kg/injection, schedule: Q01DX005 (ip), vehicle: Klucel (hydroxypropylcellulose) (HPC)) 92 % of control.

For the compound `O=C1CS(=O)(=O)C(c2ccccn2)N1CCN1C(=O)CS(=O)(=O)C1c1ccccn1` (stereo unspecified), the T/C reads like this: (dose: 100.0 mg/kg/injection, schedule: Q01DX001 (ip), vehicle: saline with Tween-80) 100 % of control and 101 % of control; (dose: 100.0 mg/kg/injection, schedule: Q04DX002 (ip), vehicle: saline with Tween-80) 90 % of control; (dose: 200.0 mg/kg/injection, schedule: Q01DX001 (ip), vehicle: saline with Tween-80) 92 % of control and 97 % of control; (dose: 200.0 mg/kg/injection, schedule: Q04DX002 (ip), vehicle: saline with Tween-80) 98 % of control; (dose: 400.0 mg/kg/injection, schedule: Q01DX001 (ip), vehicle: saline with Tween-80) 89 % of control and 101 % of control; (dose: 400.0 mg/kg/injection, schedule: Q04DX002 (ip), vehicle: saline with Tween-80) 91 % of control.

As for `O=C1N(Br)C(=O)C(c2ccc(Cl)cc2)(c2ccc(Cl)cc2)N1Br`, the T/C runs as follows: (dose: 11.0 mg/kg/injection, schedule: Q01DX009 (ip), vehicle: saline with Tween-80) 122 % of control; (dose: 150.0 mg/kg/injection, schedule: Q01DX009 (ip), vehicle: saline with Tween-80) 154 % of control.

Turning to `O=C(/N=C1\N=Nc2nc(C(C(=O)c3cccc([N+](=O)[O-])c3Cl)c3nc4n(c3O)/C(=N/C(=O)Nc3ccc(Cl)cc3)N=N4)c(O)n21)Nc1ccc(Cl)cc1` (stereo unspecified), the T/C was 99 % of control under setting [13], 100 % of control under setting [14] and 97 % of control under setting [15].

Regarding `O=C(O)C(CCc1ccccc1)NCc1ccccc1` (stereo unspecified), the T/C by setting is: under setting [8], 102 % of control; under setting [9], 88 % of control; under setting [10], 88 % of control and 94 % of control; under setting [11], 95 % of control; under setting [12], 89 % of control.

Consider `CCC(=O)/C(=C\c1ccccc1Cl)C(C)=O`, for which the T/C under setting [1] was 105 % of control, the T/C under setting [2] was 110 % of control and the T/C under setting [3] is 95 % of control.

For `CCCCCNc1ccc(NCCCCC)c2c1C(=O)c1ccccc1C2=O`, the T/C reads like this: under setting [9], 98 % of control; under setting [10], 99 % of control; under setting [11], 89 % of control.
